Assay results reported in patent US11053282B2, “Peptoid affinity ligands” (MIKE-ANN, LLC, priority 2016, dated 2021).
*1 amine or outer side, *2 acyl side, *3 side chain or, on linkers, in order; H or OH if unused. Where a SMILES comes first, the peptide text is derived from it. [ ]: non-standard residue; d: D form. ξ: configuration not given here. Gly(N(CH2)2(3-indolyl)) = O=C(O)CNCCc1c[nH]c2ccccc12; NGly(CH2(3-pyridyl)) = O=C(O)CNCc1cccnc1; ξW = NC(Cc1c[nH]c2ccccc12)C(=O)O; Gly(N(CH2)3NH2) = NCCCNCC(=O)O; Cit = NC(=O)NCCC[CH](N)C(=O)O; Cysteamide = C(CS[*:3])N[*:1]; ξCit = NC(=O)NCCCC(N)C(=O)O; ξH = NC(Cc1c[nH]cn1)C(=O)O; Nphe = O=C(O)CNCc1ccccc1; NPrGly = CCCNCC(=O)O; ξV = CC(C)C(N)C(=O)O

Target: polyclonal human IgG
Assay: Adsorption isotherm of peptoid affinity resins against polyclonal human IgG
Type: binding
Details: IgG in PBS, 30 minutes; for Kd: affinity constant from hyperbola fit of adsorption isotherm, peptoid conjugated to chromatographic resin, read-out: Kd × 10^−6
Method: The affinity for the peptoid-resin combinations was determined by measuring the adsorption isotherm of each resin against polyclonal human IgG (Pakimna et al., J Applied Sci., 12(11): 1136-1141, 2012). Briefly, 0.050 mL of 50% resin slurry was pipetted into 6 individual wells of a 96-well filter plate (0.45 micron, PVDF, Harvard Apparatus). The resin was washed with 2×250 μL PBS using a vacuum manifold. To an individual well, 0.25 mL of a human polyclonal IgG solution at different concentrations (10, 5, 2.5, 1.25, 0.625, and 0.3125 mg/mL) was added. The resin/IgG suspension was agitated gently on a rocking table for 30 minutes. The fluid was then collected via vacuum, and the resin was washed with 0.25 mL of PBS. The filtrate and wash were then analyzed by the BCA assay to determine the residual IgG concentration relative to the starting concentration of the solution.
The equilibrium concentrations were then used to determine the capacity of the resin at each IgG concentration using the following formula: q=Volumesample×(Initial Concentration−Equilibrium Concentration)/Volumeresin
A plot of q versus equilibrium concentration was generated and the data fit with a hyperbola to determine the affinity constant (Kd) and the maximum capacity (qmax) according to the below formula, where C=the equilibrium concentration of antibody in solution: q=qmax×C/(kd+C) Typical adsorption isotherm is shown in FIG. 2. Tabulated Kd and qmax data is found in Table 2.

[1] = maximum capacity (qmax) of resin from hyperbola fit of adsorption isotherm

SMILES	Kd	Qmax [1]	Qmax (mg/mL) [1]
NC(=O)NCCCC(NC(=O)CN(Cc1ccccc1)C(=O)CNCc1cccnc1)C(=O)NC(CCCNC(N)=O)C(=O)NCCS (stereo not shown) [Ligand 12-55-6] (H-[NGly(CH2(3-pyridyl))][Nphe][Cit][Cit]-Cysteamide; configuration not given here)	33 µM	97 mg/mL	
CCCN(CC(=O)NCCS)C(=O)CN(CCc1c[nH]c2ccccc12)C(=O)CNC(=O)C(CCCNC(N)=O)NC(=O)CN(CCc1c[nH]c2ccccc12)C(=O)CNCc1cccnc1 (stereo not shown) [Ligand 12-65-1] (H-[NGly(CH2(3-pyridyl))][Gly(N(CH2)2(3-indolyl))][ξCit]G[Gly(N(CH2)2(3-indolyl))][NPrGly]-Cysteamide)	7.9 µM	65 mg/mL	
CCCN(CC(=O)NCCS)C(=O)CN(CCc1c[nH]c2ccccc12)C(=O)CNC(=O)C(CCCNC(N)=O)NC(=O)CN(CCc1c[nH]c2ccccc12)C(=O)[C@@H](N)Cc1c[nH]cn1 (stereo partly shown) [Ligand 12-65-2] (H-H[Gly(N(CH2)2(3-indolyl))][ξCit]G[Gly(N(CH2)2(3-indolyl))][NPrGly]-Cysteamide)	15 µM	53 mg/mL	
NC(=O)NCCCC(N)C(=O)N(CC(=O)N(CCc1c[nH]c2ccccc12)CC(=O)NCC(=O)N(CCc1c[nH]c2ccccc12)CC(=O)NCCS)Cc1cccnc1 (stereo not shown) [Ligand 12-65-5] (H-[ξCit][NGly(CH2(3-pyridyl))][Gly(N(CH2)2(3-indolyl))]G[Gly(N(CH2)2(3-indolyl))]-Cysteamide)	3.6 µM	64 mg/mL	
NC(=O)NCCCC(NC(=O)CN(Cc1ccccc1)C(=O)CNCc1cccnc1)C(=O)NC(CCCNC(N)=O)C(=O)N(CC(=O)NCCS)Cc1cccnc1 (stereo not shown) [Ligand 12-65-8] (H-[NGly(CH2(3-pyridyl))][Nphe][Cit][Cit][NGly(CH2(3-pyridyl))]-Cysteamide; configuration not given here)	3.6 µM		57. mg/mL
NC(=O)NCCCC(NC(=O)CN(CCc1c[nH]c2ccccc12)C(=O)CNCc1cccnc1)C(=O)N(CCc1c[nH]c2ccccc12)CC(=O)NCCS (stereo not shown) [Ligand 16-81-4] (H-[NGly(CH2(3-pyridyl))][Gly(N(CH2)2(3-indolyl))][ξCit][Gly(N(CH2)2(3-indolyl))]-Cysteamide)	2.9 µM	64 mg/mL	
CCCN(CC(=O)NCCS)C(=O)C(Cc1c[nH]c2ccccc12)NC(=O)CNC(=O)CN(CCCN)C(=O)CN(CCc1c[nH]c2ccccc12)C(=O)CNCc1cccnc1 (stereo not shown) [Ligand 16-83-2] (H-[NGly(CH2(3-pyridyl))][Gly(N(CH2)2(3-indolyl))][Gly(N(CH2)3NH2)]G[ξW][NPrGly]-Cysteamide)	5.3 µM	49 mg/mL	
CCCN(CC(=O)NCCS)C(=O)CN(CCc1c[nH]c2ccccc12)C(=O)CNC(=O)CN(CCCN)C(=O)C(Cc1c[nH]c2ccccc12)NC(=O)CNCc1cccnc1 (stereo not shown) [Ligand 16-83-3] (H-[NGly(CH2(3-pyridyl))][ξW][Gly(N(CH2)3NH2)]G[Gly(N(CH2)2(3-indolyl))][NPrGly]-Cysteamide)	7.3 µM	51 mg/mL	
CCCN(CC(=O)NCCS)C(=O)CN(CCc1c[nH]c2ccccc12)C(=O)CNC(=O)CN(CCCN)C(=O)CN(CCc1c[nH]c2ccccc12)C(=O)C(N)Cc1c[nH]cn1 (stereo not shown) [Ligand 16-83-5] (H-[ξH][Gly(N(CH2)2(3-indolyl))][Gly(N(CH2)3NH2)]G[Gly(N(CH2)2(3-indolyl))][NPrGly]-Cysteamide)	6.5 µM	62 mg/mL	
CC(C)C(NC(=O)CN(CCc1c[nH]c2ccccc12)C(=O)CNC(=O)CN(CCCN)C(=O)CN(CCc1c[nH]c2ccccc12)C(=O)CNCc1cccnc1)C(=O)NCCS (stereo not shown) [Ligand 16-83-6] (H-[NGly(CH2(3-pyridyl))][Gly(N(CH2)2(3-indolyl))][Gly(N(CH2)3NH2)]G[Gly(N(CH2)2(3-indolyl))][ξV]-Cysteamide)	4.6 µM	56 mg/mL	
NC(=O)NCCCC(NC(=O)CNCCc1c[nH]c2ccccc12)C(=O)N(CCc1c[nH]c2ccccc12)CC(=O)N(CC(=O)NCCS)Cc1cccnc1 (stereo not shown) [Ligand 16-83-7] (H-[Gly(N(CH2)2(3-indolyl))][ξCit][Gly(N(CH2)2(3-indolyl))][NGly(CH2(3-pyridyl))]-Cysteamide)	7.7 µM	53 mg/mL	
NC(=O)NCCCC(N)C(=O)N(CCc1c[nH]c2ccccc12)CC(=O)N(CC(=O)N(CCc1c[nH]c2ccccc12)CC(=O)NCCS)Cc1cccnc1 (stereo not shown) [Ligand 16-83-9] (H-[ξCit][Gly(N(CH2)2(3-indolyl))][NGly(CH2(3-pyridyl))][Gly(N(CH2)2(3-indolyl))]-Cysteamide)	4.9 µM	52 mg/mL	
NC(=O)NCCCC(NC(=O)CN(CCc1c[nH]c2ccccc12)C(=O)CNCc1cccnc1)C(=O)NC(CCCNC(N)=O)C(=O)NCCS (stereo not shown) [Ligand 16-84-2]	6.5 µM	48 mg/mL	
NC(=O)NCCCC(N)C(=O)N(CC(=O)N(CCc1c[nH]c2ccccc12)CC(=O)N(CC(=O)NCCS)Cc1cccnc1)Cc1cccnc1 (stereo not shown) [Ligand 16-84-3] (H-[ξCit][NGly(CH2(3-pyridyl))][Gly(N(CH2)2(3-indolyl))][NGly(CH2(3-pyridyl))]-Cysteamide)	4.9 µM	56 mg/mL	
